Results taken from publication PMC9230784, “Development of a Novel Class of Pyridazinone Derivatives as Selective MAO-B Inhibitors” (Molecules, 2022).
Entries after “also recorded” stand apart in the source; their conditions may differ. Where two headings read alike, the source gives them in different places.

How the values were obtained:
[1] = for Prediction (BBB permeation class): PAMPA-BBB; for BBB permeation in words: PAMPA
[2] = PAMPA-BBB; cited from earlier work
Recombinant human MAO-A = target: T1, Recombinant human MAO-A (Homo sapiens, UniProt P21397); experiment: biochemical; settings: for remaining activity at 10 µM: 10 µM compound, mean ± standard error of duplicate or triple studies, read-out: Residual Activity at 10 µM (%) MAO-A
T1 construct: purchased Sigma-Aldrich (St. Louis, MO, USA)
T1 sequence (P21397 1-527): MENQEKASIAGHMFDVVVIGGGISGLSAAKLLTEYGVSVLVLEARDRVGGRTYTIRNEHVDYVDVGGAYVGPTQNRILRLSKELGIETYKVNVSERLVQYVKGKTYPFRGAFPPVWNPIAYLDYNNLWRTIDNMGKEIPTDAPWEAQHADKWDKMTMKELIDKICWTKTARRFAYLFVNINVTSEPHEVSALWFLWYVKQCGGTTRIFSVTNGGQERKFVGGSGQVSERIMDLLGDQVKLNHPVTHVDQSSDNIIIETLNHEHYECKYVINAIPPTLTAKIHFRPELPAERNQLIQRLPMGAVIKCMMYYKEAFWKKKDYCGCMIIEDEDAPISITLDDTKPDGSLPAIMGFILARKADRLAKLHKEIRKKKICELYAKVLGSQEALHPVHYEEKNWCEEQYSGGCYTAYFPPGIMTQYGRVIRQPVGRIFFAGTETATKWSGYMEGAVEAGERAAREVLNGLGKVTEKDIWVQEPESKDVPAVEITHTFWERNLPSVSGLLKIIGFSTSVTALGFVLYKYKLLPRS
Protocol: The IC50 values were determined by measuring the residual activity at different concentrations of the compounds and by using GraphPad Prism software 5.0. […] BACE1 inhibitory activities were tested by the BACE1 activity detection kit. The assay method was described previously. Recombinant human MAO-A and MAO-B, AChE from Electrophorus electricus, BChE from equine serum, BACE1, and their substrates and reference inhibitors were purchased from Sigma-Aldrich (St. Louis, MO, USA).
(§1) Lineweaver–Burk plots were used to examine the inhibition patterns, and secondary plots were used to calculate the Ki values with three inhibitor dosages.

MAO-B [3] = target: T2, MAO-B (Homo sapiens, UniProt P27338); experiment: biochemical; format: biochemical; settings: for remaining activity at 10 µM: 10 µM compound, mean ± standard error of duplicate or triple studies, read-out: Residual Activity at 10 µM (%) MAO-B; for SI (selectivity index for MAO-B compared with MAO-A): MAO-B versus MAO-A
T2 construct: purchased Sigma-Aldrich (St. Louis, MO, USA)
T2 sequence (P27338 1-520): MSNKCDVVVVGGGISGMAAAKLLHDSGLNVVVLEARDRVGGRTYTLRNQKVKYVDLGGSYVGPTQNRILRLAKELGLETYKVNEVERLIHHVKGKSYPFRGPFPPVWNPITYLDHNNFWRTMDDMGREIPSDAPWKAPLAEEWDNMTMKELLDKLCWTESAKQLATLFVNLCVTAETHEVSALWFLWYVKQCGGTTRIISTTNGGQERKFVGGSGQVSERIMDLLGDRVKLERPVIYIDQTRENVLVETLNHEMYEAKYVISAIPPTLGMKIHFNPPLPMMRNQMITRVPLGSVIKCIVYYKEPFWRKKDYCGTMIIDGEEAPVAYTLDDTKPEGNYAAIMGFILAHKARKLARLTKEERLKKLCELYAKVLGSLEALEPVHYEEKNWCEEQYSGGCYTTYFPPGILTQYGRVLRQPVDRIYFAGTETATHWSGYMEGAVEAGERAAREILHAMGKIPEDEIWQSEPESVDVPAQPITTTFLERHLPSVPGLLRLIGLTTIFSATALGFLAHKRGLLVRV
Protocol: The IC50 values were determined by measuring the residual activity at different concentrations of the compounds and by using GraphPad Prism software 5.0. […] BACE1 inhibitory activities were tested by the BACE1 activity detection kit. The assay method was described previously. Recombinant human MAO-A and MAO-B, AChE from Electrophorus electricus, BChE from equine serum, BACE1, and their substrates and reference inhibitors were purchased from Sigma-Aldrich (St. Louis, MO, USA). […]

MAO-B [4] = target: T2, MAO-B; experiment: Kinetic study, Lineweaver–Burk and secondary plots; format: biochemical; settings: for Inhibition type for MAO-B: Lineweaver–Burk plots
Excerpt: Five different substrate concentrations were used in the kinetics.
as §1

MAO-B [5] = target: T2, MAO-B; experiment: Inhibition reversibility by dialysis; format: biochemical; settings: for Reversibility of MAO-B inhibition: dialysis, AU versus AD; for Relative activity of dialyzed (AD) sample / Relative activity of undialyzed (AU) sample: preincubation 30 min at ~2 × IC50
Excerpt: The relative activity of undialyzed (AU) as well as dialyzed (AD) samples were compared to establish reversibility profiles.
To determine reversibility patterns, the activities of dialyzed (AD) and undialyzed (AU) specimens were compared.

in vitro = settings: PAMPA
[6] = kynuramine 0.06 mM, highest concentration 40 µM, read-out: IC50 (µM) MAO-A
[7] = benzylamine 0.3 mM, highest concentration 40 µM, read-out: IC50 (µM) MAO-B

| Compound | remaining activity at 10 µM (Recombinant human MAO-A) | IC50 (Recombinant human MAO-A; [6]) | remaining activity at 10 µM (MAO-B [3]) | SI (selectivity index for MAO-B compared with MAO-A) (MAO-B [3]) | IC50 (MAO-B [3]; [7]) | also measured |
| --- | --- | --- | --- | --- | --- | --- |
| NCCc1ccc(O)c(O)c1 [Dopamine, reference compound] |  |  |  |  |  | Prediction (BBB permeation class) [1]: CNS- (CNS-: Pe (10^−6 cm/s) <2, less BBB permeable); Bibliography Pe (×10^−6 cm/s) [2]: 0.2 ×10^−6 cm/s |
| CCn1cc(C(=O)O)c(=O)c2cc(F)c(N3CCNC(C)C3)c(F)c21 (stereo not shown) [Lomefloxacin, reference compound] |  |  |  |  |  | Prediction (BBB permeation class) [1]: CNS- (CNS-: Pe (10^−6 cm/s) <2, less BBB permeable) |
| CC(=O)[C@H]1CC[C@H]2[C@@H]3CCC4=CC(=O)CC[C@]4(C)[C@H]3CC[C@]12C [Progesterone, reference compound] |  |  |  |  |  | Prediction (BBB permeation class) [1]: CNS+ (CNS+, Pe (10^−6 cm/s) >4, good BBB permeable) |
| COc1cccc(N2CCN(c3ccc(=O)n(CC(=O)NN=Cc4ccccc4)n3)CC2)c1 [TR1] | 82 ± 1.2% | 17.3 ± 1.2 µM | 80.5 ± 1.01% | <0.43 | > 40 µM |  |
| COc1cccc(N2CCN(c3ccc(=O)n(CC(=O)NN=Cc4ccc(Cl)cc4)n3)CC2)c1 [TR2] | 65.8 ± 0.66% |  | -4.37 ± 4.13% |  |  | IC50 (Recombinant human MAO-A): 22.9 ± 0.24 µM; IC50 (MAO-B [3]): 0.27 ± 0.02 µM; Fold increase of MAO-B inhibitory potency compared to the basic structure TR1 (MAO-B [3]; versus TR1): 148.1 fold; Ki (MAO-B [4]): 0.23 ± 0.004 µM; Inhibition type for MAO-B (MAO-B [4]): competitive inhibitors; Reversibility of MAO-B inhibition (MAO-B [5]): reversible inhibitors; Relative activity of dialyzed (AD) sample (MAO-B [5]): 75.0%; Relative activity of undialyzed (AU) sample (MAO-B [5]): 28.0%; BBB permeation in words [1]: tendency to traverse the blood–brain barrier; also recorded: good CNS permeabilities; Prediction (BBB permeation class) [1]: CNS+ (CNS+, Pe (10^−6 cm/s) >4, good BBB permeable); Papp (in vitro): 9.33 ± 0.33 ×10⁻⁶ cm/s |
| COc1cccc(N2CCN(c3ccc(=O)n(CC(=O)NN=Cc4ccc(F)cc4)n3)CC2)c1 [TR3] | 71.66 ± 0.71% | 19.7 ± 0.3 µM | 20.1 ± 1.15% | 9.31 | 2.11 ± 0.51 µM |  |
| COc1ccc(C=NNC(=O)Cn2nc(N3CCN(c4cccc(OC)c4)CC3)ccc2=O)cc1 [TR4] | 61 ± 3.54% | 16.5 ± 1.66 µM | 88.6 ± 8.61% | <0.41 | > 40 µM |  |
| COc1cccc(N2CCN(c3ccc(=O)n(CC(=O)NN=Cc4ccc(C)cc4)n3)CC2)c1 [TR5] | 72.8 ± 1.02% | 18.19 ± 0.09 µM | 45.6 ± 2.56% | 4.12 | 4.42 ± 0.23 µM |  |
| COc1cccc(N2CCN(c3ccc(=O)n(CC(=O)NN=Cc4ccc(Br)cc4)n3)CC2)c1 [TR6] | 51.7 ± 4.55% | 12.33 ± 0.11 µM | 70.2 ± 3.8% | 0.81 | 15.1 ± 0.18 µM |  |
| O=C(Cn1nc(N2CCN(c3cccc(C(F)(F)F)c3)CC2)ccc1=O)NN=Cc1ccccc1 [TR7] | 55.4 ± 0.84% | 14.4 ± 3.55 µM | 90.7 ± 6.64% | <0.36 | > 40 µM |  |
| O=C(Cn1nc(N2CCN(c3cccc(C(F)(F)F)c3)CC2)ccc1=O)NN=Cc1ccc(Cl)cc1 [TR8] | 52.9 ± 0.82% | 12 ± 1.75 µM | 69.1 ± 0.95% | 0.60 | 20 µM |  |
| O=C(Cn1nc(N2CCN(c3cccc(C(F)(F)F)c3)CC2)ccc1=O)NN=Cc1ccc(F)cc1 [TR9] | 72.28 ± 0.4% | 17.1 ± 0.21 µM | 46.5 ± 4.93% | 17.08 | 1 ± 0.15 µM |  |
| COc1ccc(C=NNC(=O)Cn2nc(N3CCN(c4cccc(C(F)(F)F)c4)CC3)ccc2=O)cc1 [TR10] | 56 ± 2.26% | 13.3 ± 1.81 µM | 91.9 ± 7.09% | <0.33 | > 40 µM |  |
| Cc1ccc(C=NNC(=O)Cn2nc(N3CCN(c4cccc(C(F)(F)F)c4)CC3)ccc2=O)cc1 [TR11] | 55.6 ± 2.28% | 18.5 ± 5.83 µM | 83.87 ± 0.56% | 0.57 | 32 ± 1.21 µM |  |
| CN(C)c1ccc(C=NNC(=O)Cn2nc(N3CCN(c4cccc(C(F)(F)F)c4)CC3)ccc2=O)cc1 [TR12] | 52.5 ± 1.77% | 14.7 ± 2.96 µM | 85.3 ± 1.59% | <0.37 | > 40 µM |  |
| O=C(Cn1nc(N2CCN(c3cccc(C(F)(F)F)c3)CC2)ccc1=O)NN=Cc1ccc(Br)cc1 [TR13] | 74.2 ± 6.43% | 31 ± 4.33 µM | 100 ± 5.43% | <0.78 | > 40 µM |  |
| O=C(Cn1nc(N2CCOCC2)ccc1=O)NN=Cc1ccccc1 [TR14] | 97.47 ± 0.71% | > 40 µM | 107 ± 2.01% |  | > 40 µM |  |
| O=C(Cn1nc(N2CCOCC2)ccc1=O)NN=Cc1ccc(F)cc1 [TR15] | 85.6 ± 1.04% |  | 12.5 ± 3.54% |  |  | IC50 (Recombinant human MAO-A): > 40 µM; IC50 (MAO-B [3]): 0.43 ± 0.05 µM |
| O=C(Cn1nc(N2CCOCC2)ccc1=O)NN=Cc1ccc(Cl)cc1 [TR16] | 85 ± 3.08% |  | 13.1 ± 0.64% |  |  | IC50 (Recombinant human MAO-A): > 40 µM; IC50 (MAO-B [3]): 0.17 ± 0.04 µM; Fold higher IC50 for MAO-B than TR2 (MAO-B [3]; versus TR2): 1.59 fold; Times higher MAO-B inhibitory activity over the basic structure TR14 (MAO-B [3]; versus TR14): 235.3 times; Times higher MAO-B inhibitory activity over TR15 (MAO-B [3]; versus TR15): 2.5 times; Ki (MAO-B [4]): 0.149 ± 0.016 µM; Inhibition type for MAO-B (MAO-B [4]): competitive inhibitors; Reversibility of MAO-B inhibition (MAO-B [5]): reversible inhibitors; Relative activity of dialyzed (AD) sample (MAO-B [5]): 73.4%; Relative activity of undialyzed (AU) sample (MAO-B [5]): 31.8%; BBB permeation in words [1]: tendency to traverse the blood–brain barrier; also recorded: good CNS permeabilities; Prediction (BBB permeation class) [1]: CNS+ (CNS+, Pe (10^−6 cm/s) >4, good BBB permeable); Papp (in vitro): 10.6 ± 0.26 ×10⁻⁶ cm/s |
